Laboratory results from patent US9725414B2, “Fungicidal N-bicycloalkyl and N-tricycloalkyl pyrazole-4-(thio)carboxamide derivatives” (priority 2011, dated 2017).

Columns and labels:
[1] = tested on: Septoria tritici; experiment: Example H: in vivo preventive test on Septoria tritici (wheat), N,N-dimethylacetamide/emulsifier preparation; settings: 500 ppm of active ingredient, evaluated 21 days after inoculation
Experimental: (§1) In Vivo Preventive Test on Septoria tritici (Wheat) Solvent: 49 parts by weight of N,N-dimethylacetamide Emulsifier: 1 part by weight of alkylaryl polyglycol ether To produce a suitable preparation of active compound, 1 part by weight of active compound or active compound combination is mixed with the stated amounts of solvent and emulsifier, and the concentrate is diluted with water to the desired concentration. To test for preventive activity, young plants are sprayed with the preparation of active compound or active compound combination at the stated rate of application. After the spray coating has been dried, the plants are sprayed with a spore suspension of Septoria tritici. The plants remain for 48 hours in an incubation cabinet at approximately 20° C. and a relative atmospheric humidity of approximately 100% and afterwards for 60 hours at approximately 15° C. in a translucent incubation cabinet at a relative atmospheric humidity of approximately 100%.

[2] = tested on: Leptosphaeria nodorum; experiment: Example K: in vivo preventive test on Leptosphaeria nodorum (wheat); settings: 500 ppm of active ingredient, evaluated 8 days after inoculation
Experimental: as §1, with “Leptosphaeria nodorum” for “Septoria tritici”, “Leptosphaeria nodorum.” for “Septoria tritici.”, “approximately” for “approximately 100% and afterwards for 60 hours at approximately 15° C. in a translucent incubation cabinet at a relative atmospheric humidity of approximately”

[3] = log P by HPLC on reversed-phase column (C 18), EEC Directive 79831 Annex V.A8; format: physicochemical; settings: HPLC reversed-phase C 18, 40° C., 0.1% aqueous formic acid and acetonitrile gradient; several values = mixture of two or more isomers
Outline: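 Reversed-phase C18 HPLC at 40° C, 0.1% aqueous formic acid/acetonitrile linear gradient 10% to 90% acetonitrile, per EEC Directive 79831 Annex V.A8. log P obtained from retention time by linear interpolation between unbranched alkan-2-ones (C3-C16) of known log P.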

[4] = tested on: Puccinia triticina; experiment: Example L: in vivo preventive test on Puccinia triticina (wheat); settings: 500 ppm of active ingredient, evaluated 8 days after inoculation
Experimental: In Vivo Preventive Test on Puccinia triticina (Wheat)
Solvent: 49 parts by weight of N,N-dimethylacetamide
Emulsifier: 1 part by weight of alkylaryl polyglycol ether
To produce a suitable preparation of active compound, 1 part by weight of active compound or active compound combination is mixed with the stated amounts of solvent and emulsifier, and the concentrate is diluted with water to the desired concentration.
To test for preventive activity, young plants are sprayed with the preparation of active compound or active compound combination at the stated rate of application.
After the spray coating has been dried, the plants are sprayed with a spore suspension of Puccinia triticina.
The plants remain for 48 hours in an incubation cabinet at approximately 20° C. and a relative atmospheric humidity of approximately 100%.
The plants are placed in the greenhouse at a temperature of approximately 20° C. and a relative atmospheric humidity of approximately 80%.
The test is evaluated 8 days after the inoculation. 0% means an efficacy which corresponds to that of the untreated control, while an efficacy of 100% means that no disease is observed.

[5] = tested on: Fusarium nivale (var. majus); experiment: Example N: in vivo preventive test on Fusarium nivale (wheat); settings: 500 ppm of active ingredient, evaluated 5 days after inoculation
Experimental: In Vivo Preventive Test on Fusarium nivale (Wheat) Solvent: 49 parts by weight of N,N-dimethylacetamide Emulsifier: 1 part by weight of alkylaryl polyglycol ether To produce a suitable preparation of active compound, 1 part by weight of active compound or active compound combination is mixed with the stated amounts of solvent and emulsifier, and the concentrate is diluted with water to the desired concentration. To test for preventive activity, young plants are sprayed with the preparation of active compound or active compound combination at the stated rate of application. After the spray coating has been dried, the plants are slightly injured by using a sandblast and afterwards they are sprayed with a conidia suspension of Fusarium nivale (var. majus). The plants are placed in the greenhouse under a translucent incubation cabinet at a temperature of approximately 10° C. and a relative atmospheric humidity of approximately 100%.

[6] = tested on: Blumeria graminis f.sp. hordei; experiment: Example J: in vivo preventive test on Blumeria graminis (barley); settings: 500 ppm of active ingredient, evaluated 7 days after inoculation
Experimental: In Vivo Preventive Test on Blumeria graminis (Barley) Solvent: 49 parts by weight of N,N-dimethylacetamide Emulsifier: 1 part by weight of alkylaryl polyglycol ether To produce a suitable preparation of active compound, 1 part by weight of active compound or active compound combination is mixed with the stated amounts of solvent and emulsifier, and the concentrate is diluted with water to the desired concentration. To test for preventive activity, young plants are sprayed with the preparation of active compound or active compound combination at the stated rate of application. After the spray coating has been dried, the plants are dusted with spores of Blumeria graminis f.sp. hordei.

[7] = tested on: Venturia inaequalis; experiment: Example G: in vivo preventive test on Venturia inaequalis (apple scab); settings: 100 ppm of active ingredient, evaluated 10 days after inoculation
Experimental: In Vivo Preventive Test on Venturia inaequalis (Apple Scab) Solvent: 24.5 parts by weight of acetone • 24.5 parts by weight of N,N-dimethylacetamide Emulsifier: 1 part by weight of alkylaryl polyglycol ether To produce a suitable preparation of active compound, 1 part by weight of active compound is mixed with the stated amounts of solvent and emulsifier, and the concentrate is diluted with water to the desired concentration. To test for preventive activity, young plants are sprayed with the preparation of active compound at the stated rate of application. After the spray coating has dried on, the plants are inoculated with an aqueous conidia suspension of the causal agent of apple scab (Venturia inaequalis) and then remain for 1 day in an incubation cabinet at approximately 20° C. and a relative atmospheric humidity of 100%. The plants are then placed in a greenhouse at approximately 21° C. and a relative atmospheric humidity of approximately 90%.

What does the source list for `Cn1nc(C(F)F)c(C(=O)N(C2CC2)C2CC3CCCCC3C2)c1F` (centres unmarked) [Example 12]?
Efficacy [1]: 100%; Efficacy [2]: 93%; logP [3]: 4.11; Efficacy [4]: 100%; Efficacy [5]: 100%; Efficacy [6]: 100%

With `Cn1nc(C(F)F)c(C(=O)N(C2CC2)C2CCCC3CCCC32)c1F` (centres unmarked) [Example 19] as the compound, how does the Efficacy [1] read?
The Efficacy was 100%.

And the Efficacy [2]?
The Efficacy was 100%.

And the Efficacy [7]?
Its Efficacy is 100%.

And the logP [3]?
The logP was 3.99.

And the Efficacy [4]?
The Efficacy was 100%.

And the Efficacy [5]?
The Efficacy was 100%.

What about the Efficacy [6] of the same compound?
The Efficacy was 100%.

For `Cn1cc(C(=O)N(C2CC2)C2CCCC3CCCC32)c(C(F)F)n1` (centres unmarked) [Example 20], which Efficacy [1] is on record?
Its Efficacy is 100%.

What about the Efficacy [2] of the same compound?
Its Efficacy is 86%.

What about the logP [3] of the same compound?
Its logP is 3.48.

And the Efficacy [4]?
Its Efficacy is 78%.

What about the Efficacy [5] of the same compound?
The Efficacy was 100%.

And the Efficacy [6]?
Its Efficacy is 95%.

Which Efficacy [1] does the source give for `Cn1nc(C(F)F)c(C(=O)N(CC2CCC3CCCC3C2)C2CC2)c1F` (centres unmarked) [Example 62] here?
Its Efficacy is 100%.

And the Efficacy [2]?
The Efficacy was 100%.

What about the logP [3] of the same compound?
Its logP is 4.41.

What about the Efficacy [4] of the same compound?
Its Efficacy is 100%.

And the Efficacy [5]?
Its Efficacy is 100%.

What about the Efficacy [6] of the same compound?
The Efficacy was 100%.

Which Efficacy [1] does the source give for `Cn1nc(C(F)F)c(C(=O)N(CC2(Cc3ccccc3)CC3CCC2C3)C2CC2)c1F` (centres unmarked) [Example 69] here?
Its Efficacy is 100%.

What about the Efficacy [2] of the same compound?
The Efficacy was 100%.

And the logP [3]?
The logP was 4.91.

And the Efficacy [5]?
The Efficacy was 93%.

What about the Efficacy [6] of the same compound?
Its Efficacy is 100%.

What does the source list for `Cn1nc(C(F)F)c(C(=O)N(CC2CC3CCC2C3)C2CC2)c1F` (centres unmarked) [Example 71]?
Efficacy [1]: 100%; Efficacy [2]: 100%; Efficacy [7]: 100%; logP [3]: 3.58; Efficacy [4]: 100%; Efficacy [5]: 100%; Efficacy [6]: 100%

With `CC(C1CC2CCC1C2)N(C(=O)c1c(C(F)F)nn(C)c1F)C1CC1` (centres unmarked) [Example 93] as the compound, how does the Efficacy [1] read?
The Efficacy was 83%.

And the Efficacy [2]?
Its Efficacy is 100%.

What about the Efficacy [7] of the same compound?
The Efficacy was 100%.

And the logP [3]?
The logP was 4.01.

And the Efficacy [4]?
Its Efficacy is 100%.

And the Efficacy [5]?
Its Efficacy is 100%.

What about the Efficacy [6] of the same compound?
The Efficacy was 100%.
